Data reported in patent US20020031818A1, “Modification of Mdm2 activity” (priority 2000, published 2002).

Tests used:
p53-mediated apoptosis = test: Apoptosis assay (DNA fragmentation, flow cytometry) in Mdm2/p53 double null cells; format: cell-based; conditions: co-expression with p53 in Mdm2/p53 double null cells
Experimental: FIGS. 5A-5D. Mdm2 sumoylation or mutation on Lys446 increases p53 ubiquitination and degradation and decreases p53 ability to mediate apoptosis. […] WCE was immunoprecipitated using monoclonal p53 antibodies. […] B. Ubiquitinated Mdm2 is less efficient in targeting the ubiquitination of p53. Bacterially expressed Mdm2 ([…]) was subjected to in vitro ubiquitination (self ubiquitination) in the presence of E1 [45 ng], E2 UbcH5b [1.5 μg] and ubiquitin [3 μg; SIGMA] and […] in ubiquitination buffer for the 0, 2, or 3 h (to ensure efficient self-ubiquitination) as indicated in Figure. To monitor the degree of Mdm2's ability to target the ubiquitination of p53, equal amounts of the self-ubiquitinated Mdm2 were extensively washed with TBS/0.5% Triton X-100 before incubated with bacculovirus-expressed and purified form of HA-tagged p53 for 2 h in the presence of E1, E2 and ubiquitin. The degree of p53 ubiquitination was monitored via immunoblot analysis using antibodies to HA. C. […]
Mdm2/p53 double null cells were transfected with Mdm2 constructs (as indicated) and marker plasmid encoding Green Fluorescent Protein, pEGFP (1 μg). […] The percentage of cells to the left of the diploid G0/1 peak, characteristic of hypodiploid cells, was calculated as the percentage of apoptotic cells.

Mdm2 [1] = test: 35S pulse-chase half-life of Mdm2 forms in p53/Mdm2 double null cells; format: cell-based, human; conditions: lactacystin 25 μM
Experimental: C. p53/Mdm2 double null cells were transfected with the wt or K1 forms of Mdm2 and 24 h later were subjected to pulse chase labeling with ^35S-methionine in the absence or presence of lactacystin (25 μM) as indicated in Figure. Proteins prepared at the indicated time-points were immunoprecipitated using monoclonal antibodies to Mdm2 followed by autoradiography.
p53/Mdm2 double null cells were transfected with wt or K1 forms of Mdm2 expression vectors (4 μg). ^35S-methionine (1 mCi) was added to the cell cultures 24 h after transfection for 5 hr (pulse) followed by chase (2 mM cold methionine) for the indicated time-points. Protein extracts (1 mg) were used for immunopurification of Mdm2 using mixture of monoclonal antibodies (2A-10/3 F1). Immunoprecipitated Mdm2 was washed, separated on 10% SDS-PAGE and analyzed by autoradiography.

Mdm2 [2] = test: In vivo ubiquitination of Mdm2 in EJ cells (HA-Ub, Mdm2 immunoprecipitation); format: cell-based, mouse
Description: FIG. 14A-14E. A. In vitro ubiquitination of Mdm2 is inhibited by p19^ARF. GST-Mdm2 was subjected to an in vitro ubiquitination reaction using purified forms of E1, E2 and Ub-HA in the presence of ATP. Addition of bacculovirus-purified p19^ARF at the indicated concentrations blocked Mdm2 ubiquitination. Glutathione bead-coupled GST-Mdm2 in its ubiquitinated or non-ubiquitinated forms was washed and analyzed on immunoblots using antibodies to HA (upper panel). Middle panel depicts the level of Mdm2 expression and the lower panel, the level of p19^ARF added to the reaction. B. p19^ARF expression increases Mdm2 self-ubiquitination in EJ cells. EJ cells were transfected with the indicated plasmids. Cells were harvested 36 h later and proteins ([…]) were immunoprecipitated using Mdm2 antibodies (2A10). Immunoprecipitated material was washed and proteins loaded onto 10% SDS-PAGE, followed by immunoblot analysis with HA-antibodies to detect covalent HA-ubiquitin conjugation to Mdm2 (upper panel). Middle panel depicts level of immunoprecipitated Mdm2. Lower panel represents western analysis of p19^ARF expression levels. C. In vitro ubiquitination of Mdm2 in the presence of p19^ARF and protein extracts. […] The level of p53 immunoprecipitated was monitored in immunoblots using polyclonal antibodies to p53 (middle). […]

## K1: Mdm2 mutant with lysine 446 substituted for arginine
p53-mediated apoptosis
  decrease in p53-induced apoptosis (cell death) compared with wt Mdm2: greater decrease in degree of cell death

## CC(=O)N[C@@H](CSC(=O)[C@]1([C@@H](O)C(C)C)NC(=O)[C@H](C)[C@@H]1O)C(=O)O [lactacystin]
Mdm2 [1]; K1 expressing cells
  effect on half life of K1 form of Mdm2: remained unchanged
Mdm2 [1]; wt Mdm2 transfected cells
  effect on half-life of p75 and p90 forms of Mdm2: prolonged the half-life of both p75 and p90

## C[S+]([O-])c1ccc(-c2nc(-c3ccncc3)c(-c3ccc(F)cc3)[nH]2)cc1 (centres unmarked) [SB203580]
Mdm2 [2]; EJ cells with Flag-Mdm2, p19ARF, HA-Ub, PD 98059 50 μM, SB203580 10 and 100 μM, LY294002 50 μM, Herbimycin 1 μM
  p19ARF-mediated Mdm2 ubiquitination in inhibitor-treated cells: capable of attenuating p19^ARF-mediated Mdm2 ubiquitination
Mdm2 [2]; SB203580 10 μM or LY294002 50 μM, 2 h prior to harvest
  increase in Mdm2 ubiquitination after UV treatment in inhibitor-pretreated cells: attenuated
